What follows are compounds tested against B-Raf (V600E)-kinase (Homo sapiens (Human), UniProt P15056, V600E) (assay: Kinase test B-RAF (V600E)). Details: B-RAF (V600E) kinase test, 250 μM ATP.
Assay type: biochemical
Protocol: Kinase Test B-RAF (V600E)
In a dilution series 10 μL of test substance solution are placed in a multiwell plate. The dilution series is selected so that generally a range of concentrations of 2 μM to 0.119 nM or 0.017 nM is covered. If necessary the initial concentration of 2 μM is changed to 50 μM, 10 μM or 0.4 μM or 0.2857 μM and further dilution is carried out accordingly. The final concentration of DMSO is 5%. 10 μL of the B-Raf (V600E)-kinase solution are pipetted in (containing 0.5 ng B-Raf (V600E)-kinase in 20 mM Tris-HCl pH 7.5, 0.1 mM EDTA, 0.1 mM EGTA, 0.286 mM sodium orthovanadate, 10% glycerol, 1 mg/mL bovine serum albumin, 1 mM dithiothreitol) and the mixture is incubated for 24 h at RT under with shaking. The kinase reaction is started by the addition of 20 μL ATP solution [final concentration: 250 μM ATP, 30 mM Tris-HCl pH 7.5, 0.02% Brij, 0.2 mM sodium orthovanadate, 10 mM magnesium acetate, 0.1 mM EGTA, phosphatase cocktail (Sigma, # P2850, dilution recommended by the manufacturer), 0.1 mM EGTA] and 10 μL MEK1 solution [containing 50 ng biotinylated MEK1 (prepared from purified MEK1 according to standard procedure, e.g. with EZ-Link Sulpho-NHS-LC-Biotin reagent, Pierce, #21335) and carried out for 60 min at RT with constant shaking. The reaction is stopped by the addition of 12 μL of a 100 mM EDTA solution and incubation is continued for a further 5 min. 55 μL of the reaction solution are transferred into a streptavidin-coated plate (e.g. Streptawell HighBond, Roche, #11989685001) and shaken gently for 1 h at RT, in order to bind biotinylated MEK1 to the plate. After elimination of the liquid the plate is washed five times with 200 μL of 1×PBS and 100 μL solution of primary antibody plus europium-labelled secondary antibody [Anti Phospho-MEK (Ser217/221), Cell Signaling, #9121 and Eu-N1 labeled goat-anti-rabbit antibody, Perkin Elmer, # AD0105], the primary antibody is diluted 1:2000 and the secondary antibody is diluted to 0.4-0.5 μg/mL in Delfia Assay Buffer (Perkin Elmer, #1244-111). After 1 h shaking at RT the solution is poured away and washed five times with 200 μL Delfia Wash Buffer (Perkin Elmer, #4010-0010/#1244-114). After the addition of 200 μL Enhancement Solution (Perkin Elmer, #4001-0010/#1244-105) the mixture is shaken for 10 min at RT and then measured in a Wallac Victor using the program “Delfia Time Resolved Fluorescence (Europium)”. IC50 values are obtained from these dosage-activity curves using a software program (GraphPadPrizm).

B-Raf (V600E)-kinase, sequence (P15056 whole entry V600E): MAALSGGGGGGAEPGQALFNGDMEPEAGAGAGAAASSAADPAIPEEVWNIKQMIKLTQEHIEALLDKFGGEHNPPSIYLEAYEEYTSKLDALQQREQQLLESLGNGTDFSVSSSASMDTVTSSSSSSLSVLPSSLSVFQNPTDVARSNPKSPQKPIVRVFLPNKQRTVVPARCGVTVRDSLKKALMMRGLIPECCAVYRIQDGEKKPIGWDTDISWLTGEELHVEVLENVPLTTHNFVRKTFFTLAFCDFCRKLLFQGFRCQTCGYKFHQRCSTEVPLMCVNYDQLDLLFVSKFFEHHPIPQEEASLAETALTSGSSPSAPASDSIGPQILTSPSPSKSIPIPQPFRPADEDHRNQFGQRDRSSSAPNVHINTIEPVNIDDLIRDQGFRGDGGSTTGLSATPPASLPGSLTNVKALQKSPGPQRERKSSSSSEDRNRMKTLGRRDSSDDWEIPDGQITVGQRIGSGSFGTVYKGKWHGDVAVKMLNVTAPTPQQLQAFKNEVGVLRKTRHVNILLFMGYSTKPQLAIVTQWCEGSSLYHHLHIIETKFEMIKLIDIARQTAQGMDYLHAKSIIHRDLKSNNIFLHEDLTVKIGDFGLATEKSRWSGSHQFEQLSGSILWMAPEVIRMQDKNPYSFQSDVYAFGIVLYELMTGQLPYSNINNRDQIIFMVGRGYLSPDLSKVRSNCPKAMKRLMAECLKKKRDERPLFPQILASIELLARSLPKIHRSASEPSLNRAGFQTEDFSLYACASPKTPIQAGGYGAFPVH

SMILES	IC50 [nM]
COc1ccc(NC(=O)c2ccc(F)c(Nc3ncnc4cnc(N(C)C)nc34)c2)cc1C(F)(F)F [III-41]	1
Cc1ccc(C(=O)Nc2cc(N3CCN(C)CC3)cc(C(F)(F)F)c2)cc1Nc1ncnc2cnc(N3CC[C@H](F)C3)nc12 [III-457]	4
COc1ccc(NC(=O)c2ccc(C)c(N(C)c3ncnc4cnc(NC5CCOC5)nc34)c2)cc1C(F)(F)F (centres unmarked) [III-585]	27
Cc1ccc(C(=O)Nc2ccc(C#N)c(C(F)(F)F)c2)cc1Nc1ncnc2cnc(N3CCCC3)nc12 [III-273]	31
Cc1ccc(C(=O)Nc2cc(N(C)CCN(C)C)cc(C(F)(F)F)c2)cc1Nc1ncnc2c(N)nc(N(C)C)nc12 [I-78]	8
Cc1ccc(C(=O)Nc2cccc(C(F)(F)F)c2)cc1Nc1ncnc2c(N)nc(N3CCN(C(C)C)CC3)nc12 [I-64]	< 1
COc1ccc(NC(=O)c2ccc(C(F)(F)F)c(Nc3ncnc4cnc(NCCN5CCOCC5)nc34)c2)cc1C(F)(F)F [III-53]	318
CC1=Nc2ccc(NC(=O)c3ccc(C)c(Nc4ncnc5cnc(N6CCC(CN7CCCC7)CC6)nc45)c3)cc2C1(C)C [III-601]	6
Cc1ccc(C(=O)Nc2cccc(C(F)(F)F)c2)cc1Nc1ncnc2c(N)nc(N3CCCN(C4CC4)CC3)nc12 [I-58]	1
Cc1ccc(C(=O)Nc2cc(N3CCN(C)CC3)c(F)c(C(F)(F)F)c2)cc1Nc1ncnc2cnc(NC3CCOC3)nc12 (centres unmarked) [III-506]	4
COc1ccc(NC(=O)c2ccc(C(F)(F)F)c(Nc3ncnc4cnc(N(C)CCN(C)C)nc34)c2)cc1C(F)(F)F [III-43]	972
CN(C)c1ncc2ncnc(Nc3cc(C(=O)Nc4cc(C(C)(C)C)on4)ccc3F)c2n1 [III-93]	1
Cc1ccc(NC(=O)c2cccc(C(C)(C)C#N)c2)cc1Nc1ncnc2cnc(N(C)CC3CCOCC3)nc12 [IV-39]	4
Cc1ccc(C(=O)Nc2ccc(C(F)(F)F)cc2)cc1Nc1ncnc2c(N)nc(N3CCN(CC4CCN(C)CC4)CC3)nc12 [I-8]	2
Cc1ccc(C(=O)Nc2cc(C(C)(C)C)n[nH]2)cc1Nc1ncnc2c(N)nc(N3CCN(C)CC3)nc12 [I-18]	3
COc1ccc(NC(=O)c2ccc(C)c(Nc3ncnc4cnc(N5CCN(CCCN6CCCC6)CC5)nc34)c2)cc1C(F)(F)F [III-553]	2
Cc1ccc(NC(=O)c2cccc(C(F)(F)F)c2)cc1Nc1ncnc2c(N)nc(N3CCCNCC3)nc12 [II-11]	20

SMILES	IC50 [nM]
COc1ccc(NC(=O)c2ccc(F)c(Nc3ncnc4cnc(NCCCN5CCOCC5)nc34)c2)cc1C(F)(F)F [III-36]	3
COCCN1CCN(c2ncc3ncnc(Nc4cc(C(=O)Nc5cc(N6CCN(C)CC6)c(F)c(C(F)(F)F)c5)ccc4C)c3n2)CC1 [III-501]	25
Cc1ccc(C(=O)Nc2ccc(C(F)(F)F)cc2)cc1Nc1ncnc2c(N)nc(NCCN(C)C)nc12 [I-6]	68
Cc1ccc(C(=O)Nc2ccc(F)c(C(F)(F)F)c2)cc1Nc1ncnc2cnc(N(C)CCN(C)C)nc12 [III-231]	29
COCCN(C)c1ncc2ncnc(Nc3cc(C(=O)Nc4ccc(OC)c(C(F)(F)F)c4)ccc3C)c2n1 [III-473]	1
CN(C)c1ncc2ncnc(Nc3cc(C(=O)Nc4cc(C(C)(C)C)on4)ccc3Cl)c2n1 [III-69]	6
Cc1ccc(C(=O)NC2CCCCC2)cc1Nc1ncnc2cnc(N3CCCN(C)CC3)nc12 [III-183]	> 15000
COc1ccc(NC(=O)c2ccc(C)c(Nc3ncnc4cnc(N5CCN(CC6CCN(C)CC6)CC5)nc34)c2)cc1C(F)(F)F [III-419]	1
COc1ccc(C(=O)Nc2ccc(OC)c(C(F)(F)F)c2)cc1Nc1ncnc2cnc(NCCCN3CCOCC3)nc12 [III-24]	5
Cc1ccc(C(=O)Nc2cccc(C(F)(F)F)c2)cc1Nc1ncnc2c(N)nc(N3CCCN(C)CC3)nc12 [I-68]	< 1
CNc1ncc2ncnc(Nc3cc(C(=O)Nc4cc(C(C)(C)C)on4)ccc3F)c2n1 [III-94]	6
CN1CCN(c2nc(N)c3ncnc(Nc4ccc(F)c(C(=O)Nc5cc(C(C)(C)C)n[nH]5)c4)c3n2)CC1 [I-82]	676
COc1ccc(NC(=O)c2ccc(C)c(Nc3ncnc4cnc(N(C)C5CCOC5)nc34)c2)cc1C(F)(F)F (centres unmarked) [III-548]	3
Cc1ccc(C(=O)Nc2cc(C(C)(C)C)n[nH]2)cc1Nc1ncnc2c(N)nc(N3CCN(C4CC4)CC3)nc12 [I-42]	9
Cc1ccc(C(=O)Nc2cccc(N(C)C)c2)cc1Nc1ncnc2cnc(N(C)CCN(C)C)nc12 [III-238]	87
Cc1ccc(C(=O)Nc2cc(C(F)(F)F)ccn2)cc1Nc1ncnc2cnc(NC3CCOC3)nc12 (centres unmarked) [III-355]	< 1
COc1ccc(NC(=O)c2ccc(C)c(N(C)c3ncnc4cnc(N5CC[C@H](F)C5)nc34)c2)cc1C(F)(F)F [III-587]	65

Continued, values first:

IC50 [nM]	SMILES
< 1	COCCN(C)c1ncc2ncnc(Nc3cc(C(=O)Nc4cccc(C(C)(C)C)c4)ccc3C)c2n1 [III-468]
4	Cc1ccc(C(=O)Nc2cc(C(C)(C)C)on2)cc1Nc1ncnc2cnc(N3CCN(C4CCN(C)CC4)CC3)nc12 [III-486]
1540	Cc1ccc(C(=O)Nc2ccccc2)cc1Nc1ncnc2cnc(N3CCN(C)CC3)nc12 [III-190]
2000	Cc1ccc(C(=O)NC2CC2)cc1Nc1ncnc2cnc(N3CCCCC3)nc12 [III-254]
61	Cc1ccc(C(=O)NCc2cccc(C(F)(F)F)c2)cc1Nc1ncnc2cnc(N3CCCC3)nc12 [III-257]
3	Cc1ccc(C(=O)Nc2ccc(N(C)CCN(C)C)c(C(F)(F)F)c2)cc1Nc1ncnc2cnc(N3CCOCC3)nc12 [III-130]
< 1	COc1ccc(NC(=O)c2ccc(C)c(Nc3ncnc4cnc(N5CCOCC5)nc34)c2)cc1C(F)(F)F [III-2]
9	Cc1ccc(C(=O)Nc2cc(C(C)(C)C)n[nH]2)cc1Nc1ncnc2cnc(N3CCN(CC4CCOC4)CC3)nc12 (centres unmarked) [III-602]
8	COc1ccc(C(F)(F)F)cc1NC(=O)c1ccc(C)c(Nc2ncnc3cnc(N4CCCN(C)CC4)nc23)c1 [III-219]
1	Cc1ccc(C(=O)Nc2cc(N3CCN(C)CC3)c(F)c(C(F)(F)F)c2)cc1Nc1ncnc2cnc(N3CCOCC3)nc12 [III-503]
1	O=C(Nc1cc(C(F)(F)F)ccn1)c1ccc(F)c(Nc2ncnc3cnc(N4CCOCC4)nc23)c1 [III-393]
11	COc1c(NC(=O)c2ccc(C)c(Nc3ncnc4cnc(N5CCOCC5)nc34)c2)cc(C(C)(C)C)cc1NS(C)(=O)=O [III-323]
221	Cc1ccc(NC(=O)c2cc(C(C)(C)C)nn2C)cc1Nc1ncnc2cnc(N3CCN(C)CC3)nc12 [IV-10]
2	Cc1ccc(C(=O)Nc2cc(C(C)(C)C)on2)cc1Nc1ncnc2cnc(NCC3CCOC3)nc12 (centres unmarked) [III-359]
2	Cc1ccc(C(=O)Nc2cc(C(C)(C)C)n[nH]2)cc1Nc1ncnc2cnc(N3CCN(CC4CCN(C)CC4)CC3)nc12 [III-418]
41	COc1c(NC(=O)c2ccc(C)c(Nc3ncnc4cnc(N5CCCCC5)nc34)c2)cc(C(C)(C)C)cc1NS(C)(=O)=O [III-338]
2	Cc1cn(-c2ncc3ncnc(Nc4cc(C(=O)Nc5cc(C(C)(C)C)on5)ccc4C)c3n2)cn1 [III-367]
< 1	COc1ccc(C(F)(F)F)cc1NC(=O)c1ccc(C)c(Nc2ncnc3cnc(N4CCN(CC5CCN(C)CC5)CC4)nc23)c1 [III-413]
5	CC(C)(C)c1cc(NC(=O)c2ccc(F)c(Nc3ncnc4cnc(N5CCCC5)nc34)c2)no1 [III-90]
2	Cc1ccc(C(=O)Nc2cc(C(C)(C)C)on2)cc1Nc1ncnc2cnc(NCC3CCCCO3)nc12 (centres unmarked) [III-361]
4	Cc1ccc(C(=O)Nc2cc(C(C)(C)C)on2)cc1Nc1ncnc2cnc(N3CCN(CC(C)C)CC3)nc12 [III-494]
< 1	Cc1ccc(NC(=O)c2cccc(C(C)(C)C#N)c2)cc1Nc1ncnc2cnc(N3CCOCC3)nc12 [IV-2]
< 1	COc1ccc(C(F)(F)F)cc1NC(=O)c1ccc(C)c(Nc2ncnc3cnc(N4CCOCC4)nc23)c1 [III-304]
1	COCCNc1ncc2ncnc(Nc3cc(C(=O)Nc4cc(C(C)(C)C)on4)ccc3C)c2n1 [III-358]
12	Cc1ccc(NC(=O)c2cccc(C(F)(F)F)c2)cc1Nc1ncnc2cnc(N3CCN(C)CC3)nc12 [IV-3]

— patent publication US8653087B2, “Pyrido [5, 4-D] pyrimidines as cell proliferation inhibitors” (Boehringer Ingelheim International GmbH, priority 2008, dated 2014)
